Data from PubChem BioAssay AID1918991 (Molecular Pharmacology Branch, DTP, NCI, 2023).
pIC50: −log10 of the molar value.

System: 186277-243-T-J2-PDC complex spheroid growth
Assay: Anticancer human tumor 186277-243-T-J2-PDC patient-derived colon adenocarcinoma cell line growth inhibition [AhR]
Conditions: for pIC50: curve of first compound; for viability, T/C: stronger effect = lower value
Summary of the method: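 Spheroids combined tumor cells with HUVEC endothelial cells and human MSCs as stroma. AhR antagonists were paired with standard or investigational drugs, each dosed in half-log steps down from near clinical Cmax, or from 10 microM where Cmax was unknown.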

[1] = second compound 0.1 µM, first compound 0.0316 µM
[2] = second compound 0.1 µM, first compound 0.1 µM
[3] = second compound 0.1 µM, first compound 0.316 µM
[4] = second compound 0.1 µM, first compound 1 µM
[5] = second compound 0.316 µM, first compound 0.0316 µM
[6] = second compound 0.316 µM, first compound 0.1 µM
[7] = second compound 0.316 µM, first compound 0.316 µM
[8] = second compound 0.316 µM, first compound 1 µM
[9] = second compound 1 µM, first compound 0.0316 µM
[10] = second compound 1 µM, first compound 0.1 µM
[11] = second compound 1 µM, first compound 0.316 µM
[12] = second compound 1 µM, first compound 1 µM
[13] = second compound 3.16 µM, first compound 0.0316 µM
[14] = second compound 3.16 µM, first compound 0.1 µM
[15] = second compound 3.16 µM, first compound 0.316 µM
[16] = second compound 3.16 µM, first compound 1 µM
[17] = second compound 10 µM, first compound 0.0316 µM
[18] = second compound 10 µM, first compound 0.1 µM
[19] = second compound 10 µM, first compound 0.316 µM
[20] = second compound 10 µM, first compound 1 µM
[21] = second compound 0.1 µM, first compound 3.16 µM
[22] = second compound 0.1 µM, first compound 10 µM
[23] = second compound 0.316 µM, first compound 3.16 µM
[24] = second compound 0.316 µM, first compound 10 µM
[25] = second compound 1 µM, first compound 3.16 µM
[26] = second compound 1 µM, first compound 10 µM
[27] = second compound 3.16 µM, first compound 3.16 µM
[28] = second compound 3.16 µM, first compound 10 µM
[29] = second compound 10 µM, first compound 3.16 µM
[30] = second compound 10 µM, first compound 10 µM
[31] = second compound 0.1 µM, first compound 0.00949 µM
[32] = second compound 0.1 µM, first compound 0.03 µM
[33] = second compound 0.1 µM, first compound 0.0949 µM
[34] = second compound 0.1 µM, first compound 0.3 µM
[35] = second compound 0.316 µM, first compound 0.00949 µM
[36] = second compound 0.316 µM, first compound 0.03 µM
[37] = second compound 0.316 µM, first compound 0.0949 µM
[38] = second compound 0.316 µM, first compound 0.3 µM
[39] = second compound 1 µM, first compound 0.00949 µM
[40] = second compound 1 µM, first compound 0.03 µM
[41] = second compound 1 µM, first compound 0.0949 µM
[42] = second compound 1 µM, first compound 0.3 µM
[43] = second compound 3.16 µM, first compound 0.00949 µM
[44] = second compound 3.16 µM, first compound 0.03 µM
[45] = second compound 3.16 µM, first compound 0.0949 µM
[46] = second compound 3.16 µM, first compound 0.3 µM
[47] = second compound 10 µM, first compound 0.00949 µM
[48] = second compound 10 µM, first compound 0.03 µM
[49] = second compound 10 µM, first compound 0.0949 µM
[50] = second compound 10 µM, first compound 0.3 µM
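Note: spheroids exposed to compounds for seven days before the viability read.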
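Throughout, for viability, T/C: luminescent signal used as a stand-in for viable cell amount; 100% = DMSO vehicle control wells.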

## CC1COCCN1c1cc(-c2ccnn2C)c2ccnc(-c3ccn[nH]3)c2n1 (stereo not given) + Cc1ccccc1N=Nc1ccc(NC(=O)c2ccnn2C)c(C)c1
Second compound 0.1 µM
  pIC50: 7.09
Second compound 0.316 µM
  pIC50: 7.07
Second compound 1 µM
  pIC50: 7.05
Second compound 3.16 µM
  pIC50: 7.12
Second compound 10 µM
  pIC50: 7.20
Second compound 0.1 µM, first compound 0.00316 µM
  viability, T/C: 99.9%
Second compound 0.1 µM, first compound 0.01 µM
  viability, T/C: 105%
[1]
  viability, T/C: 96.7%
[2]
  viability, T/C: 40.1%
[3]
  viability, T/C: 10.2%
[4]
  viability, T/C: 8.07%
Second compound 0.316 µM, first compound 0.00316 µM
  viability, T/C: 97.5%
Second compound 0.316 µM, first compound 0.01 µM
  viability, T/C: 102%
[5]
  viability, T/C: 93.9%
[6]
  viability, T/C: 42.4%
[7]
  viability, T/C: 9.54%
[8]
  viability, T/C: 7.22%
Second compound 1 µM, first compound 0.00316 µM
  viability, T/C: 98.8%
Second compound 1 µM, first compound 0.01 µM
  viability, T/C: 106%
[9]
  viability, T/C: 100%
[10]
  viability, T/C: 44.1%
[11]
  viability, T/C: 9.5%
[12]
  viability, T/C: 7.1%
Second compound 3.16 µM, first compound 0.00316 µM
  viability, T/C: 97.7%
Second compound 3.16 µM, first compound 0.01 µM
  viability, T/C: 104%
[13]
  viability, T/C: 92.6%
[14]
  viability, T/C: 35.9%
[15]
  viability, T/C: 9.1%
[16]
  viability, T/C: 7.15%
Second compound 10 µM, first compound 0.00316 µM
  viability, T/C: 77%
Second compound 10 µM, first compound 0.01 µM
  viability, T/C: 91.9%
[17]
  viability, T/C: 74.3%
[18]
  viability, T/C: 33.7%
[19]
  viability, T/C: 10.4%
[20]
  viability, T/C: 7.02%

## CC1COCCN1c1cc(C2(S(C)(=N)=O)CC2)nc(-c2ccnc3[nH]ccc23)n1 (stereo not given) + Cc1ccccc1N=Nc1ccc(NC(=O)c2ccnn2C)c(C)c1
Second compound 0.1 µM
  pIC50: 5.63
Second compound 0.316 µM
  pIC50: 5.63
Second compound 1 µM
  pIC50: 5.66
Second compound 3.16 µM
  pIC50: 5.66
Second compound 10 µM
  pIC50: 5.66
[1]
  viability, T/C: 105%
[2]
  viability, T/C: 97.8%
[3]
  viability, T/C: 81.3%
[4]
  viability, T/C: 90.8%
[21]
  viability, T/C: 35.8%
[22]
  viability, T/C: 11.8%
[5]
  viability, T/C: 99.1%
[6]
  viability, T/C: 90.2%
[7]
  viability, T/C: 98.5%
[8]
  viability, T/C: 97%
[23]
  viability, T/C: 33.9%
[24]
  viability, T/C: 11.3%
[9]
  viability, T/C: 89.4%
[10]
  viability, T/C: 105%
[11]
  viability, T/C: 81.8%
[12]
  viability, T/C: 84.2%
[25]
  viability, T/C: 34%
[26]
  viability, T/C: 9.66%
[13]
  viability, T/C: 91.2%
[14]
  viability, T/C: 83.8%
[15]
  viability, T/C: 87.6%
[16]
  viability, T/C: 95.1%
[27]
  viability, T/C: 31.8%
[28]
  viability, T/C: 9.83%
[17]
  viability, T/C: 82.1%
[18]
  viability, T/C: 87.2%
[19]
  viability, T/C: 87.5%
[20]
  viability, T/C: 79.7%
[29]
  viability, T/C: 35.6%
[30]
  viability, T/C: 10.9%

## COc1ccc([C@@H](O)c2cc(-c3ncnc4cc(N5CCOCC5)ccc34)c(F)cc2Cl)nn1 + Cc1ccccc1N=Nc1ccc(NC(=O)c2ccnn2C)c(C)c1
Second compound 0.1 µM
  pIC50: < 5.00
Second compound 0.316 µM
  pIC50: < 5.00
Second compound 1 µM
  pIC50: < 5.00
Second compound 3.16 µM
  pIC50: < 5.00
Second compound 10 µM
  pIC50: 5.03
[1]
  viability, T/C: 100%
[2]
  viability, T/C: 98%
[3]
  viability, T/C: 92.9%
[4]
  viability, T/C: 80.2%
[21]
  viability, T/C: 89.6%
[22]
  viability, T/C: 55.8%
[5]
  viability, T/C: 96.5%
[6]
  viability, T/C: 104%
[7]
  viability, T/C: 93.6%
[8]
  viability, T/C: 80%
[23]
  viability, T/C: 86.4%
[24]
  viability, T/C: 52.2%
[9]
  viability, T/C: 96.5%
[10]
  viability, T/C: 101%
[11]
  viability, T/C: 101%
[12]
  viability, T/C: 98%
[25]
  viability, T/C: 104%
[26]
  viability, T/C: 62.7%
[13]
  viability, T/C: 97.1%
[14]
  viability, T/C: 89.4%
[15]
  viability, T/C: 89.7%
[16]
  viability, T/C: 79.8%
[27]
  viability, T/C: 76.2%
[28]
  viability, T/C: 54.2%
[17]
  viability, T/C: 76.3%
[18]
  viability, T/C: 81.9%
[19]
  viability, T/C: 91%
[20]
  viability, T/C: 80.5%
[29]
  viability, T/C: 90.9%
[30]
  viability, T/C: 47.5%

## Nc1ncn(C2CC(O)C(CO)S2)c(=O)n1 (stereo not given) + Cc1ccccc1N=Nc1ccc(NC(=O)c2ccnn2C)c(C)c1
Second compound 0.1 µM
  pIC50: < 6.52
Second compound 0.316 µM
  pIC50: < 6.52
Second compound 1 µM
  pIC50: < 6.52
Second compound 3.16 µM
  pIC50: < 6.52
Second compound 10 µM
  pIC50: < 6.52
Second compound 0.1 µM, first compound 0.000949 µM
  viability, T/C: 97.2%
Second compound 0.1 µM, first compound 0.003 µM
  viability, T/C: 123%
[31]
  viability, T/C: 119%
[32]
  viability, T/C: 104%
[33]
  viability, T/C: 132%
[34]
  viability, T/C: 111%
Second compound 0.316 µM, first compound 0.000949 µM
  viability, T/C: 106%
Second compound 0.316 µM, first compound 0.003 µM
  viability, T/C: 106%
[35]
  viability, T/C: 105%
[36]
  viability, T/C: 109%
[37]
  viability, T/C: 109%
[38]
  viability, T/C: 116%
Second compound 1 µM, first compound 0.000949 µM
  viability, T/C: 103%
Second compound 1 µM, first compound 0.003 µM
  viability, T/C: 109%
[39]
  viability, T/C: 100%
[40]
  viability, T/C: 127%
[41]
  viability, T/C: 127%
[42]
  viability, T/C: 108%
Second compound 3.16 µM, first compound 0.000949 µM
  viability, T/C: 108%
Second compound 3.16 µM, first compound 0.003 µM
  viability, T/C: 104%
[43]
  viability, T/C: 107%
[44]
  viability, T/C: 106%
[45]
  viability, T/C: 117%
[46]
  viability, T/C: 120%
Second compound 10 µM, first compound 0.000949 µM
  viability, T/C: 96.5%
Second compound 10 µM, first compound 0.003 µM
  viability, T/C: 102%
[47]
  viability, T/C: 102%
[48]
  viability, T/C: 99.5%
[49]
  viability, T/C: 93%
[50]
  viability, T/C: 90.1%

## O=C(C=Cn1cnc(-c2cc(C(F)(F)F)cc(C(F)(F)F)c2)n1)NNc1cnccn1 + Cc1ccccc1N=Nc1ccc(NC(=O)c2ccnn2C)c(C)c1
Second compound 0.1 µM
  pIC50: 6.31
Second compound 0.316 µM
  pIC50: 6.30
Second compound 1 µM
  pIC50: 6.27
Second compound 3.16 µM
  pIC50: 6.33
Second compound 10 µM
  pIC50: 6.37
[31]
  viability, T/C: 98.7%
[32]
  viability, T/C: 107%
[33]
  viability, T/C: 101%
[34]
  viability, T/C: 75.4%
Second compound 0.1 µM, first compound 0.949 µM
  viability, T/C: 16.8%
Second compound 0.1 µM, first compound 3 µM
  viability, T/C: 8.98%
[35]
  viability, T/C: 94.2%
[36]
  viability, T/C: 102%
[37]
  viability, T/C: 108%
[38]
  viability, T/C: 77.7%
Second compound 0.316 µM, first compound 0.949 µM
  viability, T/C: 16.9%
Second compound 0.316 µM, first compound 3 µM
  viability, T/C: 7.87%
[39]
  viability, T/C: 92.9%
[40]
  viability, T/C: 106%
[41]
  viability, T/C: 108%
[42]
  viability, T/C: 82.6%
Second compound 1 µM, first compound 0.949 µM
  viability, T/C: 18.7%
Second compound 1 µM, first compound 3 µM
  viability, T/C: 8.79%
[43]
  viability, T/C: 96.4%
[44]
  viability, T/C: 88.4%
[45]
  viability, T/C: 106%
[46]
  viability, T/C: 71.7%
Second compound 3.16 µM, first compound 0.949 µM
  viability, T/C: 16.4%
Second compound 3.16 µM, first compound 3 µM
  viability, T/C: 10.3%
[47]
  viability, T/C: 90.2%
[48]
  viability, T/C: 88%
[49]
  viability, T/C: 83.7%
[50]
  viability, T/C: 63%
Second compound 10 µM, first compound 0.949 µM
  viability, T/C: 20.5%
Second compound 10 µM, first compound 3 µM
  viability, T/C: 12.7%
